Results reported in patent US9018388B2, “Pesticidal compositions and processes related thereto” (Dow AgroSciences LLC, priority 2012, dated 2015).
Read-outs that look alike come from different tables or passages of the source.

Experiments:
[1] = test system: Corn Earworm (CEW) (Helicoverpa zea); test: Bioassay on corn earworm (CEW), 128-well diet tray assay; assay type: in vivo; conditions: Helicoverpa zea, read-out: % Mortality CEW 50 μg/cm^2
Experimental: (§1) Bioassays on Beet Armyworm (“BAW”) and Corn Earworm (“CEW”)
(§2) Certain molecules disclosed in this document were tested against BAW and CEW using procedures described in the following examples. In the reporting of the results, the “BAW & CEW Rating Table” was used (See Table Section).
Bioassays on CEW (Helicoverpa zea)
Bioassays on CEW were conducted using a 128-well diet tray assay. One to five second instar CEW larvae were placed in each well (3 mL) of the diet tray that had been previously filled with 1 mL of artificial diet to which 50 μg/cm^2 of the test compound (dissolved in 50 μL of 90:10 acetone-water mixture) had been applied (to each of eight wells) and then allowed to dry. Trays were covered with a clear self-adhesive cover and held at 25° C., 14:10 light-dark for five to seven days. Percent mortality was recorded for the larvae in each well; activity in the eight wells was then averaged. The results are indicated in the table entitled “Table 5: Biological Results” (See Table Section).

[2] = test system: Beet Armyworm (BAW) (Spodoptera exigua); test: Bioassay on beet armyworm (BAW), 128-well diet tray assay; assay type: in vivo; conditions: Spodoptera exigua, read-out: % Mortality BAW 50 μg/cm^2
Experimental: as §1, §2
Bioassays on BAW (Spodoptera exigua)
Bioassays on BAW were conducted using a 128-well diet tray assay. One to five second instar BAW larvae were placed in each well (3 mL) of the diet tray that had been previously filled with 1 mL of artificial diet to which 50 μg/cm^2 of the test compound (dissolved in 50 μL of 90:10 acetone-water mixture) had been applied (to each of eight wells) and then allowed to dry. Trays were covered with a clear self-adhesive cover and held at 25° C., 14:10 light-dark for five to seven days. Percent mortality was recorded for the larvae in each well; activity in the eight wells was then averaged. The results are indicated in the table entitled “Table 5: Biological Results” (See Table Section).

SMILES | pest or weed control at 50 µg/cm2, 50 µg/cm2 ([1]; Corn earworm, 50 μg/cm^2) [%] | pest or weed control at 50 µg/cm2, 50 µg/cm2 ([2]; Beet armyworm, 50 μg/cm^2) [%] | pest or weed control at 50 µg/cm2, 50 µg/cm2 [1] [%] | pest or weed control at 50 µg/cm2, 50 µg/cm2 [2] [%]
CC(C)c1ccccc1N1/C(=N/N=C/c2ccc(-c3ncn(-c4ccc(OC(F)(F)F)cc4)n3)cc2)SCC1C (racemic) [Compound 155C] | 50 to 100 | 50 to 100 | – | –
COc1cc(C)c(N2C(=O)CSC2=NN=Cc2ccc(-c3ncn(-c4ccc(OC(F)(F)F)cc4)n3)cc2)c(C)c1 (stereo in doubt) [Compound 69C, (Z)-3-(4-methoxy-2,6-dimethylphenyl)-2-((E)-(4-(1-(4-(trifluoromethoxy)phenyl)-1H-1,2,4-triazol-3-yl)benzylidene)hydrazono)thiazolidin-4-one] | 50 to 100 | 50 to 100 | – | –
CC1CSC(=NN=Cc2ccc(-c3ncn(-c4ccc(OC(F)(F)F)cc4)n3)cc2)N(c2ccccc2C(C)C)C1 (stereo in doubt) [Compound 178C, (Z)-3-(2-isopropylphenyl)-5-methyl-2-((E)-(4-(1-(4-(trifluoromethoxy)phenyl)-1H-1,2,4-triazol-3-yl)benzylidene)hydrazono)-1,3-thiazinane] | 50 to 100 | 50 to 100 | – | –
CS/C(=N\c1ccc(N(C)C)cc1)N/N=C/c1ccc(-c2ncn(-c3ccc(OC(F)(F)F)cc3)n2)cc1 [Compound 1C, N-(4-dimethylaminophenyl)-S-methyl-2-{4-[1-(4-trifluoromethoxyphenyl)-1H-[1,2,4]-triazol-3-yl]-benzylidene}-hydrazine-carbothioamide] | 50 to 100 | 50 to 100 | – | –
CCS/C(=N\c1c(Cl)cccc1Cl)N/N=C/c1ccc(-c2ncn(-c3ccc(OC(F)(F)F)cc3)n2)cc1 [Compound 2C] | 50 to 100 | 50 to 100 | – | –
CCCS/C(=N\c1c(Cl)cccc1Cl)N/N=C/c1ccc(-c2ncn(-c3ccc(OC(F)(F)F)cc3)n2)cc1 [Compound 3C] | 50 to 100 | 50 to 100 | – | –
Cc1cccc(C)c1/N=C(/N/N=C/c1ccc(-c2ncn(-c3ccc(OC(F)(F)F)cc3)n2)cc1)SCc1ccc(C(=O)O)cc1 [Compound 6C] | 50 to 100 | 50 to 100 | – | –
Cc1cccc(C)c1/N=C(/N/N=C/c1ccc(-c2ncn(-c3ccc(OC(F)(F)F)cc3)n2)cc1)SCc1ccc(F)cc1F [Compound 7C] | 50 to 100 | – | – | –
Cc1cccc(C)c1/N=C(/N/N=C/c1ccc(-c2ncn(-c3ccc(OC(F)(F)F)cc3)n2)cc1)SCC#C[Si](C)(C)C [Compound 9C] | – | – | 50 to 100 | 50 to 100
Cc1cccc(C)c1/N=C(/N/N=C/c1ccc(-c2ncn(-c3ccc(OC(F)(F)F)cc3)n2)cc1)SCc1ccccc1 [Compound 10C] | 50 to 100 | 50 to 100 | – | –
Cc1cccc(C)c1/N=C(/N/N=C/c1ccc(-c2ncn(-c3ccc(OC(F)(F)F)cc3)n2)cc1)SCc1ccccc1F [Compound 11C] | 50 to 100 | 50 to 100 | – | –
Cc1cccc(C)c1/N=C(/N/N=C/c1ccc(-c2ncn(-c3ccc(OC(F)(F)F)cc3)n2)cc1)SCc1ccc(C(F)(F)F)o1 [Compound 16C] | 50 to 100 | 50 to 100 | – | –
Cc1cccc(C)c1/N=C(/N/N=C/c1ccc(-c2ncn(-c3ccc(OC(F)(F)F)cc3)n2)cc1)SCc1c(-c2ccccc2)noc1C [Compound 20C] | 50 to 100 | 50 to 100 | – | –
Cc1cccc(C)c1/N=C(/N/N=C/c1ccc(-c2ncn(-c3ccc(OC(F)(F)F)cc3)n2)cc1)SCOC(=O)CNC(=O)OCc1ccccc1 [Compound 23C] | 50 to 100 | 50 to 100 | – | –
Cc1cccc(C)c1/N=C(/N/N=C/c1ccc(-c2ncn(-c3ccc(OC(F)(F)F)cc3)n2)cc1)SCOC(=O)C(C)C [Compound 25C] | 50 to 100 | 50 to 100 | – | –
Cc1cccc(C)c1/N=C(/N/N=C/c1ccc(-c2ncn(-c3ccc(OC(F)(F)F)cc3)n2)cc1)SCOC(=O)C(C)(C)C [Compound 36C] | 50 to 100 | 50 to 100 | – | –

SMILES | pest or weed control at 50 µg/cm2, 50 µg/cm2 ([1]; Corn earworm, 50 μg/cm^2) [%] | pest or weed control at 50 µg/cm2, 50 µg/cm2 ([2]; Beet armyworm, 50 μg/cm^2) [%] | pest or weed control at 50 µg/cm2, 50 µg/cm2 [1] [%] | pest or weed control at 50 µg/cm2, 50 µg/cm2 [2] [%]
COc1cc(C)c(/N=C(/N/N=C/c2ccc(-c3ncn(-c4ccc(OC(F)(F)C(F)(F)F)cc4)n3)cc2)SCOC(=O)C(C)C)c(C)c1 [Compound 37C] | 50 to 100 | 50 to 100 | – | –
COc1cc(C)c(/N=C(/N/N=C/c2ccc(-c3ncn(-c4ccc(OC(F)(F)F)cc4)n3)cc2)SCOC(=O)C(C)OCC(F)(F)F)c(C)c1 (stereo not drawn) [Compound 38C] | 50 to 100 | 50 to 100 | – | –
COCOCC(C)C(=O)OCS/C(=N\c1c(C)cccc1C)N/N=C/c1ccc(-c2ncn(-c3ccc(OC(F)(F)F)cc3)n2)cc1 (stereo not drawn) [Compound 41C] | 50 to 100 | 50 to 100 | – | –
COCOCC(C)C(=O)OCS/C(=N\c1c(C)cc(OC)cc1C)N/N=C/c1ccc(-c2ncn(-c3ccc(OC(F)(F)F)cc3)n2)cc1 (stereo not drawn) [Compound 42C] | 50 to 100 | 50 to 100 | – | –
COc1cc(C)c(/N=C(/N/N=C/c2ccc(-c3ncn(-c4ccc(OC(F)(F)F)cc4)n3)cc2)SCOC(=O)C2CCCO2)c(C)c1 (stereo not drawn) [Compound 44C] | 50 to 100 | 50 to 100 | – | –
COc1cc(C)c(/N=C(\N/N=C/c2ccc(-c3ncn(-c4ccc(C(F)(F)F)cc4)n3)cc2)SCOC(=O)CNC(=O)OCc2ccccc2)c(C)c1 [Compound 45C] | 50 to 100 | 50 to 100 | – | –
COc1cc(C)c(/N=C(\N/N=C/c2ccc(-c3ncn(-c4ccc(C(F)(F)F)cc4)n3)cc2)SCOC(=O)C(C)C)c(C)c1 [Compound 46C] | 50 to 100 | 50 to 100 | – | –
COc1cc(C)c(/N=C(/N/N=C/c2ccc(-c3ncn(-c4ccc(OC(F)(F)F)cc4)n3)cc2)SCC(=O)O)c(C)c1 [Compound 48C] | 50 to 100 | 50 to 100 | – | –
COc1ccc(/N=C(/N/N=C/c2ccc(-c3ncn(-c4ccc(OC(F)(F)C(F)(F)F)cc4)n3)cc2)SCC(=O)O)c(C)c1 [Compound 50C] | 50 to 100 | 50 to 100 | – | –
CC(/N=C(/N/N=C/c1ccc(-c2ncn(-c3ccc(OC(F)(F)F)cc3)n2)cc1)SCC(=O)O)c1ccccc1 (stereo not drawn) [Compound 54C] | 50 to 100 | 50 to 100 | – | –
Cc1cccc(C)c1/N=C(/N/N=C/c1ccc(-c2ncn(-c3ccc(OC(F)(F)F)cc3)n2)cc1)SCC(=O)NCC(C)C [Compound 55C] | 50 to 100 | 50 to 100 | – | –
Cc1cccc(C)c1/N=C(/N/N=C/c1ccc(-c2ncn(-c3ccc(OC(F)(F)F)cc3)n2)cc1)SCC(=O)NC[C@@H]1CCCN(C(=O)OC(C)(C)C)C1 [Compound 56C, (S)-tert-butyl 3-((2-((Z)-(2,6-dimethylphenylimino)-((E)-2-(4-(1-(4-(trifluoromethoxy)phenyl)-1H-1,2,4-triazol-3-yl)benzylidene)hydrazinyl)-methylthio)acetamido)methyl)piperidine-1-carboxylate] | 50 to 100 | 50 to 100 | – | –
COc1cc(C)c(/N=C(/N/N=C/c2ccc(-c3ncn(-c4ccc(OC(F)(F)F)cc4)n3)cc2)SCC(=O)NCCCNC(=O)OC(C)(C)C)c(C)c1 [Compound 60C] | 50 to 100 | 50 to 100 | – | –
CCOc1cccc(OCC)c1N1C(=O)CS/C1=N\N=C\c1ccc(-c2ncn(-c3ccc(OC(F)(F)F)cc3)n2)cc1 [Compound 98C] | – | 50 to 100 | – | –
COc1ccc(N2C(=O)CS/C2=N\N=C\c2ccc(-c3ncn(-c4ccc(OC(F)(F)F)cc4)n3)cc2)cc1 [Compound 115C] | – | 0 to 50 | – | –
FC(F)(F)Oc1ccc(-n2cnc(-c3ccc(/C=N/N=C4\SCCN4c4ccccc4OC(F)(F)F)cc3)n2)cc1 [Compound 153C] | 50 to 100 | – | – | –
